Results on 13 compounds are retold here after ChEMBL document CHEMBL5518187, “EGCG-like non-competitive inhibitor of DYRK1A rescues cognitive defect in a down syndrome model” (Eur J Med Chem, 2024).

By IC50 is commonly meant the point on the concentration scale where inhibition reaches its midpoint.

Series [1] concerns the target Dual specificity tyrosine-phosphorylation-regulated kinase 1A (Homo sapiens, UniProt Q13627). The series is described as follows: Inhibition of DYRK1A (unknown origin) using KISGRLSPIMTEQ as substrate incubated for 30 mins in presence of ATP by UFLC-based fluorimetric analysis.
A short description of series [2]: Drug concentration in brain of Dp1Yey C57BL/6J mouse model at 50 mg/kg by UHPLC-MS/MS analysis. It is filed as ADME, organism-based. The note with it: in vivo, read-out: Ct.
Series [3] has as its system Mus musculus. The series is described as follows: Cognitive enhancing effect in Dp1Yey C57BL/6J mouse model assessed as increase in percentage of spontaneous alternation at 40 mg/kg, po administered 5 days per week for 2 months by Y-maze test. It is filed as functional, organism-based.
Series [4] has as its target Glycogen synthase kinase-3 beta (Homo sapiens) (UniProt P49841). Put plainly: Inhibition of GSK3beta (unknown origin) at 0.5 uM.
In series [5] the test system is Mus musculus. Put plainly: In vivo inhibition of DYRK1A in C57BL/6J mouse model carrying murine BACtgDyrk1a assessed as decrease in phosphorylated ERK to ERK ratio in brain administered intraperitoneally and measured after 24 hrs. It is filed as functional. To be noted: route ip.
A short description of series [6]: Stability in human plasma at 1 uM incubated for 120 mins by LC-MS/MS analysis. The note with it: 2 h. Type of series: ADME, cell-free.
The target in series [7] is Mitogen-activated protein kinase 3 (Homo sapiens) (UniProt P27361). The series is described as follows: Inhibition of ERK1 (unknown origin) at 0.5 uM.
For series [8], the target named is Mitogen-activated protein kinase 1 (Homo sapiens) (UniProt P28482). The series is described as follows: Inhibition of ERK2 (unknown origin) at 0.5 uM.
Series [9] has as its system Mus musculus. The series is described as follows: Effect on spatial working memory in Dp1Yey C57BL/6J mouse model assessed as reduction in mean speed at 40 mg/kg, po administered 5 days per week for 2 months by Y-maze test. It is filed as functional, organism-based.
Another series is filed under the species Homo sapiens. The series is described as follows: Inhibition of PI3K (unknown origin) at 0.5 uM.
The target of series [10] is Tyrosine-protein kinase Fyn (Homo sapiens) (UniProt P06241). The series is described as follows: Inhibition of FYN (unknown origin) at 0.5 uM.
A short description of series [11]: Drug concentration in wildtype mouse brain at 50 mg/kg by UHPLC-MS/MS analysis. It is filed as ADME, organism-based. To be noted: in vivo, read-out: Ct.
In series [12] the test system is Mus musculus. The series is described as follows: Effect on spatial working memory in Dp1Yey C57BL/6J mouse model assessed as reduction in total distance travelled at 40 mg/kg, po administered 5 days per week for 2 months by Y-maze test. It is filed as functional, organism-based.
In series [13] the test system is Mus musculus. The series is described as follows: Effect on spatial working memory in Dp1Yey C57BL/6J mouse model assessed as reduction in time spent in center at 40 mg/kg, po administered 5 days per week for 2 months by Y-maze test. Type of series: functional, organism-based.
Series [14] addresses Dual specificity tyrosine-phosphorylation-regulated kinase 1A (Rattus norvegicus, UniProt Q63470). The series is described as follows: Inhibition of recombinant 6His-tagged rat DYRK1A (1 to 502 residues) expressed in Escherichia coli BL21 (DE3) cells using KISGRLSPIMTEQ as substrate incubated for 30 mins in presence of ATP by absorbance based assay.

Structures are written as SMILES. Activity calls are given as the source filed them. The rule behind the calls is not given here.

Mitogen-activated protein kinase 1 (Homo sapiens), sequence (P28482 whole entry): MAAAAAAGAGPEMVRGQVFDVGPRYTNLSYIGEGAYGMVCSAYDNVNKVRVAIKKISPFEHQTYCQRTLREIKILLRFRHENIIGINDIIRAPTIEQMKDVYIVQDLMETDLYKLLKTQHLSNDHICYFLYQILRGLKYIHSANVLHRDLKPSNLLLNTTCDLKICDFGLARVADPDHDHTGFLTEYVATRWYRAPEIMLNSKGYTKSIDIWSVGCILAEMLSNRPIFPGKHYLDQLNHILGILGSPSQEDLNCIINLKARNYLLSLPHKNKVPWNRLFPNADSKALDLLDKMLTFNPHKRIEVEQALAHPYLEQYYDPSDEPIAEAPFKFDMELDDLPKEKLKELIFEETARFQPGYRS
Tyrosine-protein kinase Fyn (Homo sapiens), sequence (P06241 2-537 limits assumed): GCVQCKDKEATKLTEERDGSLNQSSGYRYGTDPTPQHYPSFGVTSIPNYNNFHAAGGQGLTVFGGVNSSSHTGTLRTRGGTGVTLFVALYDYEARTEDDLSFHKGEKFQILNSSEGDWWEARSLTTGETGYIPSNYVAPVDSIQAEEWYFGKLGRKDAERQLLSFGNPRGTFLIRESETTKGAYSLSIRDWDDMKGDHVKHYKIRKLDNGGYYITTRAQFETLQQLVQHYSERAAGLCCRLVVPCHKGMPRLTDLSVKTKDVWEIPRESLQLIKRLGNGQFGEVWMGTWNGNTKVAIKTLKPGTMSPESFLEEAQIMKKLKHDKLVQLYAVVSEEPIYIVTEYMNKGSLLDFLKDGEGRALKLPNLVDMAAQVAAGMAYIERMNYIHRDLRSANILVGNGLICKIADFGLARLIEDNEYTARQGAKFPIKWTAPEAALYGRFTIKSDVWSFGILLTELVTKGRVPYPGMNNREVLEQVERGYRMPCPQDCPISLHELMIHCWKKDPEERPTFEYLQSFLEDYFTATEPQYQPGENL
Glycogen synthase kinase-3 beta (Homo sapiens), sequence (P49841 whole entry, looked up): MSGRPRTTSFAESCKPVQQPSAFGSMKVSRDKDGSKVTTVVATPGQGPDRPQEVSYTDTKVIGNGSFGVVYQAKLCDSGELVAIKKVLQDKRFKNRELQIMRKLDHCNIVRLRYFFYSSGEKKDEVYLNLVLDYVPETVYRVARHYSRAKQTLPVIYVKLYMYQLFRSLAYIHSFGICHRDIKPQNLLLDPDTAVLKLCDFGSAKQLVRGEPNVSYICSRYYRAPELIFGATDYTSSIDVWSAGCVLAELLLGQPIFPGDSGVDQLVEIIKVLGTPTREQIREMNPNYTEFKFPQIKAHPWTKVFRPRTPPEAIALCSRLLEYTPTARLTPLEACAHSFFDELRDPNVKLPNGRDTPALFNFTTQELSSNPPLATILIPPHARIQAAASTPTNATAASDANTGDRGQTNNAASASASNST
Mitogen-activated protein kinase 3 (Homo sapiens), sequence (P27361 whole entry): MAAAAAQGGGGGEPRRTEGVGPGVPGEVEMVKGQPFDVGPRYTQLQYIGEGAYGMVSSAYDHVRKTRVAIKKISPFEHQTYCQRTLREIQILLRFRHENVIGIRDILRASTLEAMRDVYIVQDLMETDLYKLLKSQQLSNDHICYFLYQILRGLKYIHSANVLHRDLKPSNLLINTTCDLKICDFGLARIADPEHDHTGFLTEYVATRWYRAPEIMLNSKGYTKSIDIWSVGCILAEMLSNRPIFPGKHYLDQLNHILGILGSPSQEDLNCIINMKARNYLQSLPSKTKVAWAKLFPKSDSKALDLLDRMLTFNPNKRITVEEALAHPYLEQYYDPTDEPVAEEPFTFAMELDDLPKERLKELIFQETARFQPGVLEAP

`COc1cc2c(c(OC)c1)CN(C(=O)c1ccccc1)C(c1cc(OC)c(OC)c(OC)c1)C2` (stereo not given): the IC50 in series [1] is > 20 µM.

With `O=C(c1ccccc1)N1Cc2c(O)cc(O)cc2CC1C1CCCCC1` (stereo not given), the IC50 in series [1] was > 20 µM.

Regarding `Oc1cc(O)c2c(c1)CC(c1ccccc1)NC2` (stereo not given), the IC50 in series [1] is > 20 µM.

As for `O=C(c1cc(O)c(O)c(O)c1)N1Cc2c(O)cc(O)cc2CC1c1cc(O)c(O)c(O)c1` (stereo not given), the concentration in series [2] was 27.6 nM; in series [11], 38.2 nM. For the same compound, the result in the series with Mus musculus [3] was Active. Also, the inhibition entry in [4], in series [7] and in series [8] was “inactive” each time. For the same compound, the inhibition entry (with Mus musculus [5]; in the series filed under Homo sapiens; in series [10]) was “Active” throughout. In addition, the Stability entry in [6] is given as “Stable”. Further, the result with Mus musculus [9], in the series on Mus musculus [12] and in the series on Mus musculus [13] was inactive.

With `COc1cc2c(c(OC)c1)CNC(c1ccccc1)C2` (stereo not given), the 50% inhibitory concentration (IC50) in series [1] is > 20 µM.

On to `COc1cccc(C(=O)N2Cc3c(cc(OC)cc3OC)CC2c2cc(OC)c(OC)c(OC)c2)c1` (stereo not given), for which, in [1], the concentration for half-maximal inhibition (IC50) is > 20 µM.

Turning to `O=C(O[C@@H]1Cc2c(O)cc(O)cc2O[C@@H]1c1cc(O)c(O)c(O)c1)c1cc(O)c(O)c(O)c1` [EPIGALOCATECHIN GALLATE], the IC50 in series [1] was determined as 0.2 µM.

Consider `COc1cc2c(c(OC)c1)CN(C(=O)c1ccccc1)C(C1CCCCC1)C2` (stereo not given), for which the IC50 in series [1] was > 20 µM.

`Oc1ccc(-c2cnc3[nH]cc(-c4ccc(F)cc4)c3c2)cc1O`: in series [14], the IC50 is 0.02 µM.

In the case of `COc1cc2c(c(OC)c1)CNC(C1CCCCC1)C2` (stereo not given), in [1], the IC50 was > 20 µM.

For the compound `COc1ccc(C(=O)N2Cc3c(cc(OC)cc3OC)CC2C2CCCCC2)cc1` (stereo not given), the IC50 in series [1] was > 20 µM.

In the case of `Oc1cc(O)c2c(c1)CC(C1CCCCC1)NC2` (stereo not given), in series [1], the concentration for half-maximal inhibition (IC50) is > 20 µM.

As for `O=C(c1ccc(O)cc1)N1Cc2c(O)cc(O)cc2CC1C1CCCCC1` (stereo not given), in series [1], the IC50 is > 20 µM.
